According to PubChem BioAssay AID1259411 (Chemical Carcinogenesis Research Information System (CCRIS), 2018):
Calls of active or inactive are those of the source. The rule behind the calls is not given here.

System: rodent carcinogenicity bioassays, tumor incidence
Experiment: CCRIS carcinogenicity studies
Summary of the method: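 Archive of carcinogenicity, mutagenicity, tumor promotion and tumor inhibition results drawn from journals, NCI reports and other sources, expert-reviewed; covers 1985-2011 and is no longer updated.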

c1ccc2cc3c(ccc4ccccc43)cc2c1
carcinogen call (Species: MOUSE, Route: DERMAL, Tumor Site: Type of Lesion: INTEGUMENTARY SYSTEM (SKIN)): active; positive | carcinogen call (Species: MOUSE, Route: IMPLANT, Tumor Site: Type of Lesion: URINARY BLADDER): active; positive | carcinogen call (Species: MOUSE, Route: ORAL, Tumor Site: Type of Lesion: LIVER, LUNG): active; positive | carcinogen call (Species: MOUSE, Route: SUBCUTANEOUS, Tumor Site: Type of Lesion: INJECTION SITE): active; positive | carcinogen call (Species: MOUSE, Strain/Sex: B6C3F1/MALE, Route: INTRAPERITONEAL, Dose: 0, 1600 NMOL IN 35 µL DMSO TOTAL DOSE AT 1 D (1/7 TOTAL DOSE), 8 D (2/7 TOTAL DOSE), AND 15 D (4/7 TOTAL DOSE) OF AGE (S, Tumor Site: Type of Lesion: LIVER: ADENOMA, CARCINOMA): active; positive | carcinogen call (Species: MOUSE, Strain/Sex: SWISS/MALE,FEMALE, Route: INTRAPERITONEAL, Dose: 0, 2800 NMOL TOTAL DOSE, D 1, 8, AND 15 OF LIFE, Dose: 0, 2800 NMOL TOTAL DOSE, D 1, 8, AND 15 OF LIFE, Tumor Site: Type of Lesion: LUNG: ADENOMA, MALIGNANT LYMPHOMA): active; positive

CN(C)c1ccc(C(=C2C=CC(=[N+](C)C)C=C2)c2ccc(N(C)C)cc2)cc1
carcinogen call (Species: MOUSE, Strain/Sex: B6C3F1/FEMALE, Route: ORAL, Dose: 0, 100, 300, 600 PPM IN DIET FOR 104 WK (STUDY DURATION: 2 YR), Dose: 0, 100, 300, 600 PPM IN DIET FOR 104 WK (STUDY DURATION: 2 YR), Tumor Site: Type of Lesion: LIVER: MALIGNANT NEOPLASM, HARDERIAN GLAND: ADENOMA, UTERUS: TYPE-A RETICULUM CELL SARCOMA, OVARIES: TYPE-A RETICULUM CE, Tumor Site: Type of Lesion: LIVER: MALIGNANT NEOPLASM, HARDERIAN GLAND: ADENOMA, UTERUS: TYPE-A RETICULUM CELL SARCOMA, OVARIES: TYPE-A RETICULUM CE): active; positive | carcinogen call (Species: MOUSE, Strain/Sex: B6C3F1/MALE, Route: ORAL, Dose: 0, 100, 300, 600 PPM IN DIET FOR 104 WK (STUDY DURATION: 2 YR), Dose: 0, 100, 300, 600 PPM IN DIET FOR 104 WK (STUDY DURATION: 2 YR), Tumor Site: Type of Lesion: LIVER: MALIGNANT NEOPLASM, HARDERIAN GLAND: ADENOMA): active; positive | carcinogen call (Species: RAT, Strain/Sex: F344/FEMALE, Route: ORAL, Dose: 0, 100, 300, 600 PPM IN FEED FOR 24 MO (STUDY DURATION: 24 MO), Dose: 0, 100, 300, 600 PPM IN FEED FOR 24 MO (STUDY DURATION: 24 MO), Tumor Site: Type of Lesion: LIVER: HEPATOCELLULAR ADENOMA, THYROID GLAND: FOLLICULAR CELL ADENOCARCINOMA): active; positive | carcinogen call (Species: RAT, Strain/Sex: F344/MALE, Route: ORAL, Dose: 0, 100, 300, 600 PPM IN FEED FOR 24 MO (STUDY DURATION: 24 MO), Dose: 0, 100, 300, 600 PPM IN FEED FOR 24 MO (STUDY DURATION: 24 MO), Tumor Site: Type of Lesion: LIVER: HEPATOCELLULAR ADENOMA, THYROID GLAND: FOLLICULAR CELL ADENOCARCINOMA): active; positive

CCN(COC(C)=O)N=O
carcinogen call (Species: RAT, Strain/Sex: F344/FEMALE, Route: SUBCUTANEOUS, Dose: 5.5 MG/KG 1/WK FOR 10 WK, Tumor Site: Type of Lesion: INJECTION SITE: MALIGNANT FIBROUS HISTIOCYTOMA, LUNG: ADENOMA, ADENOCARCINOMA, SQUAMOUS CELL CARCINOMA): active; positive | carcinogen call (Species: RAT, Strain/Sex: F344/MALE, Route: SUBCUTANEOUS, Dose: 5.5 MG/KG 1/WK FOR 10 WK, Tumor Site: Type of Lesion: INJECTION SITE: MALIGNANT FIBROUS HISTIOCYTOMA, LUNG: ADENOMA, ADENOCARCINOMA, SQUAMOUS CELL CARCINOMA, THYROID GLAND: C, Tumor Site: Type of Lesion: INJECTION SITE: MALIGNANT FIBROUS HISTIOCYTOMA, LUNG: ADENOMA, ADENOCARCINOMA, SQUAMOUS CELL CARCINOMA, THYROID GLAND: C): active; positive

[O]=[Co]
carcinogen call (Species: RAT, Strain/Sex: SPRAGUE-DAWLEY/FEMALE, Route: INTRATRACHEAL, Dose: 0, 2, 10 MG/KG EVERY 14 D FOR TOTAL DOSES OF 0, 78, 390 MG/KG (STUDY DURATION: 2 YR), Dose: 0, 2, 10 MG/KG EVERY 14 D FOR TOTAL DOSES OF 0, 78, 390 MG/KG (STUDY DURATION: 2 YR)): inactive; negative | carcinogen call (Species: RAT, Strain/Sex: SPRAGUE-DAWLEY/MALE,FEMALE, Route: INTRAPERITONEAL, Dose: 0, 200 MG/KG EVERY 2 MO FOR TOTAL DOSES OF 0, 600 MG/KG, Dose: 0, 200 MG/KG EVERY 2 MO FOR TOTAL DOSES OF 0, 600 MG/KG, Tumor Site: Type of Lesion: PERITONEUM: TUMORS): active; positive | carcinogen call (Species: RAT, Strain/Sex: SPRAGUE-DAWLEY/MALE, Route: INTRATRACHEAL, Dose: 0, 2, 10 MG/KG EVERY 14 D FOR TOTAL DOSES OF 0, 78, 390 MG/KG (STUDY DURATION: 2 YR), Dose: 0, 2, 10 MG/KG EVERY 14 D FOR TOTAL DOSES OF 0, 78, 390 MG/KG (STUDY DURATION: 2 YR), Tumor Site: Type of Lesion: LUNG: TUMOR): active; positive | carcinogen call (Species: RAT, Strain/Sex: SPRAGUE-DAWLEY/MALE, Route: SUBCUTANEOUS, Dose: 0, 2 MG/KG 5/WK FOR TOTAL DOSES OF 0, 1000 MG/KG (STUDY DURATION: 2 YR), Dose: 0, 2 MG/KG 5/WK FOR TOTAL DOSES OF 0, 1000 MG/KG (STUDY DURATION: 2 YR), Tumor Site: Type of Lesion: SUBCUTANEOUS TISSUE: TUMORS): active; positive | carcinogen call (Species: RAT, Strain/Sex: SPRAGUE-DAWLEY/MALE, Route: SUBCUTANEOUS, Dose: 0, 10 MG/KG 1/WK FOR TOTAL DOSES OF 0, 1000 MG/KG (STUDY DURATION: 2 YR), Dose: 0, 10 MG/KG 1/WK FOR TOTAL DOSES OF 0, 1000 MG/KG (STUDY DURATION: 2 YR), Tumor Site: Type of Lesion: SUBCUTANEOUS TISSUE: TUMORS): active; positive

Clc1ccc(Cl)c(-c2cc(Cl)ccc2Cl)c1
carcinogen call (Species: MOUSE, Strain/Sex: STRAIN-A/FEMALE, Route: INTRAPERITONEAL, Dose: 0, 0.1, 0.2 UMOL/UL OF DMSO 5, 10 AND 20 µL GIVEN ON DAYS 4, 8 AND 15 AFTER BIRTH, RESPECTIVELY (STUDY DURATION: 28 WK), Dose: 0, 0.1, 0.2 UMOL/UL OF DMSO 5, 10 AND 20 µL GIVEN ON DAYS 4, 8 AND 15 AFTER BIRTH, RESPECTIVELY (STUDY DURATION: 28 WK)): inactive; negative | carcinogen call (Species: MOUSE, Strain/Sex: STRAIN-A/MALE, Route: INTRAPERITONEAL, Dose: 0, 0.1, 0.2 UMOL/UL OF DMSO 5, 10 AND 20 µL GIVEN ON DAYS 4, 8 AND 15 AFTER BIRTH, RESPECTIVELY (STUDY DURATION: 28 WK), Dose: 0, 0.1, 0.2 UMOL/UL OF DMSO 5, 10 AND 20 µL GIVEN ON DAYS 4, 8 AND 15 AFTER BIRTH, RESPECTIVELY (STUDY DURATION: 28 WK)): inactive; negative

C=C(C)CN(CC)c1c([N+](=O)[O-])cc(C(F)(F)F)cc1[N+](=O)[O-]
carcinogen call (Species: Mouse, Strain/Sex: B6C3F1/Female (40/Experimental group; 60/Control group), Route: Oral, Dose: 0, 100, 400, 1500 ppm of 94.5% ethalfluralin in diet for 2 yr, study duration 2 yr (2 replicate studies)., Dose: 0, 100, 400, 1500 ppm of 94.5% ethalfluralin in diet for 2 yr, study duration 2 yr (2 replicate studies).): inactive; negative | carcinogen call (Species: Mouse, Strain/Sex: B6C3F1/Male (40/Experimental group; 60/Control group), Route: Oral, Dose: 0, 100, 400, 1500 ppm of 94.5% ethalfluralin in diet for 2 yr, study duration 2 yr (2 replicate studies)., Dose: 0, 100, 400, 1500 ppm of 94.5% ethalfluralin in diet for 2 yr, study duration 2 yr (2 replicate studies).): inactive; negative | carcinogen call (Species: Rat, Strain/Sex: Fischer 344/Female (30/Group; replicate studies using 94.5% ethalfluralin), Route: Oral, Dose: 0, 0.01, 0.025, 0.075% (0; 4.2; 10.7; 32.3 mg/kg/d) in diet for 2 yr, study duration 2 yr, Dose: 0, 0.01, 0.025, 0.075% (0; 4.2; 10.7; 32.3 mg/kg/d) in diet for 2 yr, study duration 2 yr, Tumor Site: Type of Lesion: Mammary gland: Benign fibroadenomas): active; positive | carcinogen call (Species: Rat, Strain/Sex: Fischer 344/Male (30/Group; replicate studies using 94.5% ethalfluralin), Route: Oral, Dose: 0, 0.01, 0.025, 0.075% (0; 4.2; 10.7; 32.3 mg/kg/d) in diet for 2 yr, study duration 2 yr, Dose: 0, 0.01, 0.025, 0.075% (0; 4.2; 10.7; 32.3 mg/kg/d) in diet for 2 yr, study duration 2 yr): inactive; negative

Cc1cc(N=Nc2ccccc2C)ccc1N
carcinogen call (Species: DOG, Route: ORAL, Tumor Site: Type of Lesion: LIVER, GALL BLADDER, URINARY BLADDER, Tumor Site: Type of Lesion: LIVER, GALL BLADDER, URINARY BLADDER): active; positive | carcinogen call (Species: HAMSTER, Route: ORAL, Tumor Site: Type of Lesion: LIVER, URINARY BLADDER): active; positive | carcinogen call (Species: MOUSE, Route: INTRAPERITONEAL, ORAL, SUBCUTANEOUS, DERMAL, Tumor Site: Type of Lesion: LIVER): active; positive | carcinogen call (Species: MOUSE, Route: ORAL, SUBCUTANEOUS, Tumor Site: Type of Lesion: LUNG): active; positive | carcinogen call (Species: RAT, Route: ORAL, SUBCUTANEOUS, Tumor Site: Type of Lesion: LIVER): active; positive
